In patent US7524849B2, “5-arylpyrimidines as anticancer agents” (Wyeth Holdings Corporation, priority 2003, dated 2009):

Tested on: COLO 205 cells
Experiment: MTS cytotoxicity test with COLO 205 cells
Type: cell-based, human
Conditions: Homo sapiens, 72 h, three days with compound
Experimental: The assay, which is sold in kit form by Promega (Madison, Wis.; CellTiter 96 AQueous Non-Radioactive Cell Proliferation Assay), is based on the conversion by viable cells, but not by dead cells, of the tetrazolium salt, MTS (3-(4,5-dimethylthiazol-2-yl)-5-(3-carboxymethoxyphenyl)-2-(4-sulphophenyl)-2H-tetrazolium, inner salt), into a water-soluble colored formazan which is detected by spectrophotometry. Compounds are tested at nine concentrations, in order to determine IC50 values. For the test procedure, cells are harvested by trypsinization, washed, counted and distributed to wells of 96-well flat-bottom microtiter plates at 1000 cells per well in 200 μL of medium. In addition, one row of wells on a separate plate receives cells as above (“time 0” plate). All plates are incubated at 37° in humidified 5% CO2 in air for about 24 hr.
On day 2, compounds for test are diluted and added to wells. Compounds are dissolved in DMSO at 10 mg/mL. For each compound, nine serial 2-fold dilutions are prepared in DMSO. Ten μL of each dilution in DMSO are transferred to 100 μL of medium, mixed well, and then 5 μL of this dilution are transferred in quadruplicate to wells containing cells. The final high concentration of each compound is typically 5 μM. Plates are returned to the incubator for three days. At the time of drug addition to the experimental plates, the MTS assay is run on the “time 0” plate. This produces the “time 0 MTS value” which is related to the number of viable cells per well at the time of drug addition.
After three days of culture with test compounds (day 5 overall), the MTS assay is done on all wells of the experimental plates. The absorbance values of the quadruplicate sample wells are averaged and divided by the average of the “time 0” values. The average of control wells without drug, divided by the average “time 0” value, gives the maximal relative increase in MTS color yield due to cell growth during the final three days of culture. The average of control wells with high drug concentration, divided by the “time 0” value, gives the minimal relative color yield for cells that were completely killed. The nine values for each compound are plotted against concentration, and the concentration that produces a relative color yield half way between the maximum and minimum is taken as the IC50 value.
COLO 205 is a human colon carcinoma cell line that is used for comparative testing of the examples of this invention and several reference compounds. This line is sensitive to paclitaxel and vincristine.

CN(C)CCCOc1cc(F)c(-c2c(Cl)nc(-c3cnccn3)nc2NCC(F)(F)F)c(F)c1 [Example 25, 6-Chloro-5-{4-[3-(dimethylamino)propoxy]-2,6-difluorophenyl}-2-pyrazin-2-yl-N-(2,2,2-trifluoroethyl)pyrimidin-4-amine] and CN(C)CCCCOc1cc(F)c(-c2c(Cl)nc(-c3cnccn3)nc2NCC(F)(F)F)c(F)c1 [Example 28, 6-Chloro-5-{4-[4-(dimethylamino)butoxy]-2,6-difluorophenyl}-2-pyrazin-2-yl-N-(2,2,2-trifluoroethyl)pyrimidin-4-amine] are within 1.5-fold of each other in IC50: 22 nM for the first, 32 nM for the second.

Going from C[C@H](Nc1nc(-c2cnccn2)nc(Cl)c1-c1c(F)cc(F)cc1F)C(F)(F)F [Example 3, 6-Chloro-2-pyrazin-2-yl-N-[(1S)-2,2,2-trifluoro-1-methylethyl]-5-(2,4,6-trifluorophenyl)pyrimidin-4-amine] to C[C@H](Nc1nc(-c2ccccn2)nc(Cl)c1-c1c(F)cc(F)cc1F)C(F)(F)F [Example 9, 6-Chloro-2-pyridin-2-yl-N-[(1S)-2,2,2-trifluoro-1-methylethyl]-5-(2,4,6-trifluorophenyl)pyrimidin-4-amine], the IC50 falls from 51 nM to 29 nM (1.8-fold).

Compared with CN(C)CCCOc1cc(F)c(-c2c(Cl)nc(-c3ccc(N=[N+]=[N-])cn3)nc2NCC(F)(F)F)c(F)c1 [Example 38, 2-(5-Azidopyridin-2-yl)-6-chloro-5-{4-[3-(dimethylamino)propoxy]-2,6-difluorophenyl}-N-(2,2,2-trifluoroethyl)pyrimidin-4-amine], CN(C)CCCOc1cc(F)c(-c2c(Cl)nc(-c3ncccn3)nc2NCC(F)(F)F)c(F)c1 [Example 26, 6-Chloro-5-{4-[3-(dimethylamino)propoxy]-2,6-difluorophenyl}-N-(2,2,2-trifluoroethyl)-2,2′-bipyrimidin-4-amine] is 2.1-fold higher in IC50: 23 nM for the first, 49 nM for the second. The first is the more potent here.

First: C[C@H](Nc1nc(-n2cccn2)nc(Cl)c1-c1c(F)cc(F)cc1F)C(F)(F)F [Example 17, 6-Chloro-2-(1H-pyrazol-1-yl)-N-[(1S)-2,2,2-trifluoro-1-methylethyl)-5-(2,4,6-trifluorophenyl)pyrimidin-4-amine]
Second: Fc1cc(F)c(-c2c(Cl)nc(-n3cccn3)nc2NCC(F)(F)F)c(F)c1 [Example 16, 6-Chloro-2-(1H-pyrazol-1-yl)-N-(2,2,2-trifluoroethyl)-5-(2,4,6-trifluorophenyl)pyrimidin-4-amine]
The IC50 of the first is 2.8-fold lower: 19 nM for the first, 53 nM for the second. The first is the more potent here.

Going from Fc1cc(F)c(-c2c(Cl)nc(-c3cc4ccccc4cn3)nc2NCC(F)(F)F)c(F)c1 [Example 12, 6-Chloro-2-isoquinolin-3-yl-N-(2,2,2-trifluoroethyl)-5-(2,4,6-trifluorophenyl)pyrimidin-4-amine] to Fc1cc(F)c(-c2c(Cl)nc(-c3ccc4ccccc4n3)nc2NCC(F)(F)F)c(F)c1 [Example 10, 6-Chloro-2-quinolin-2-yl-N-(2,2,2-trifluoroethyl)-5-(2,4,6-trifluorophenyl)pyrimidin-4-amine], the IC50 rises from 119 nM to 250 nM (2.1-fold).

First: Fc1cc(F)c(-c2c(Cl)nc(-c3ccccn3)nc2NCC(F)(F)F)c(F)c1 [Example 8, 6-Chloro-2-pyridin-2-yl-N-(2,2,2-trifluoroethyl)-5-(2,4,6-trifluorophenyl)pyrimidin-4-amine]
Second: Cc1ccnc(-c2nc(Cl)c(-c3c(F)cc(F)cc3F)c(NCC(F)(F)F)n2)c1 [Example 36, 6-Chloro-2-(4-methylpyridin-2-yl)-N-(2,2,2-trifluoroethyl)-5-(2,4,6-trifluorophenyl)pyrimidin-4-amine]
The IC50 of the first is 2.8-fold lower: 39 nM for the first, 109 nM for the second. The first is the more potent here.

Compared with CN(C)CCOc1cc(F)c(-c2c(Cl)nc(N(C)C#N)nc2NCC(F)(F)F)c(F)c1 [Example 22, 4-Chloro-5-{4-[2-(dimethylamino)ethoxy]-2,6-difluorophenyl}-6-[(2,2,2-trifluoroethyl)amino]pyrimidin-2-yl(methyl)cyanamide], CN(C)CCOc1cc(F)c(-c2c(Cl)nc(-c3cnccn3)nc2NCC(F)(F)F)c(F)c1 [Example 27, 6-Chloro-5-{4-[2-(dimethylamino)ethoxy]-2,6-difluorophenyl}-2-pyrazin-2-yl-N-(2,2,2-trifluoroethyl)pyrimidin-4-amine] is 4.2-fold lower in IC50: 532 nM for the first, 128 nM for the second. The second is the more potent here.

First: Fc1cc(F)c(-c2c(Cl)nc(-c3ccc[nH]3)nc2NCC(F)(F)F)c(F)c1 [Example 35, 6-Chloro-2-(1H-pyrrol-2-yl)-N-(2,2,2-trifluoroethyl)-5-(2,4,6-trifluorophenyl)pyrimidin-4-amine]
Second: Fc1cc(F)c(-c2c(Cl)nc(-c3ccco3)nc2NCC(F)(F)F)c(F)c1 [Example 14, 6-Chloro-2-(2-furyl)-N-(2,2,2-trifluoroethyl)-5-(2,4,6-trifluorophenyl)pyrimidin-4-amine]
The IC50 of the first is 30-fold higher: 7030 nM for the first, 232 nM for the second.

Cn1ccnc1-c1nc(Cl)c(-c2c(F)cc(F)cc2F)c(NCC(F)(F)F)n1 [Example 34, 6-Chloro-2-(1-methyl-1H-imidazol-2-yl)-N-(2,2,2-trifluoroethyl)-5-(2,4,6-trifluorophenyl)pyrimidin-4-amine] and Fc1cc(F)c(-c2c(Cl)nc(-c3cnccn3)nc2NCC(F)(F)F)c(F)c1 [Example 4, 6-Chloro-2-pyrazin-2-yl-N-(2,2,2-trifluoroethyl)-5-(2,4,6-trifluorophenyl)pyrimidin-4-amine] are within 1.5-fold of each other in IC50: 77 nM for the first, 84 nM for the second.

Going from CNCCCOc1cc(F)c(-c2c(Cl)nc(-c3cnccn3)nc2N[C@@H](C)C(F)(F)F)c(F)c1 [Example 24, 6-Chloro-5-{2,6-difluoro-4-[3-(methylamino)propoxy]phenyl}-2-pyrazin-2-yl-N-[(1S)-2,2,2-trifluoro-1-methylethyl]pyrimidin-4-amine] to Fc1cc(F)c(-c2c(Cl)nc(-c3ccncc3)nc2NCC(F)(F)F)c(F)c1 [Example 6, 6-Chloro-2-pyridin-4-yl-N-(2,2,2-trifluoroethyl)-5-(2,4,6-trifluorophenyl)pyrimidin-4-amine], the IC50 rises from 6.9 nM to 7050 nM (1000-fold). The first is the more potent here.

First: Fc1cc(F)c(-c2c(Cl)nc(-n3cccc3)nc2NCC(F)(F)F)c(F)c1 [Example 18, 6-Chloro-2-(1H-pyrrol-1-yl)-N-(2,2,2-trifluoroethyl)-5-(2,4,6-trifluorophenyl)pyrimidin-4-amine]
Second: Fc1cc(F)c(-c2c(Cl)nc(-c3cccs3)nc2NCC(F)(F)F)c(F)c1 [Example 13, 6-Chloro-2-thien-2-yl-N-(2,2,2-trifluoroethyl)-5-(2,4,6-trifluorophenyl)pyrimidin-4-amine]
The IC50 of the first is 2-fold higher: 7080 nM for the first, 3460 nM for the second.

First: Fc1cc(F)c(-c2c(Cl)nc(-c3cccnc3)nc2NCC(F)(F)F)c(F)c1 [Example 7, 6-Chloro-2-pyridin-3-yl-N-(2,2,2-trifluoroethyl)-5-(2,4,6-trifluorophenyl)pyrimidin-4-amine]
Second: Fc1cc(F)c(-c2c(Cl)nc(-c3ncccn3)nc2NCC(F)(F)F)c(F)c1 [Example 5, 6-Chloro-N-(2,2,2-trifluoroethyl)-5-(2,4,6-trifluorophenyl)-2,2′-bipyrimidin-4-amine]
The IC50 of the first is 15-fold higher: 3930 nM for the first, 265 nM for the second.

First: Fc1cc(F)c(-c2c(Cl)nc(-c3nccc4ccccc34)nc2NCC(F)(F)F)c(F)c1 [Example 11, 6-Chloro-2-isoquinolin-1-yl-N-(2,2,2-trifluoroethyl)-5-(2,4,6-trifluorophenyl)pyrimidin-4-amine]
Second: O=[N+]([O-])c1ccc(-c2nc(Cl)c(-c3c(F)cc(F)cc3F)c(NCC(F)(F)F)n2)nc1 [Example 37, 6-Chloro-2-(5-nitropyridin-2-yl)-N-(2,2,2-trifluoroethyl)-5-(2,4,6-trifluorophenyl)pyrimidin-4-amine]
The IC50 of the first is 35-fold higher: 4680 nM for the first, 132 nM for the second. The second is the more potent here.

Same assay, conditions: three days with compound

“4-Chloro-6-[(2,2,2-trifluoroethyl)amino]-5-(2,4,6-trifluorophenyl)pyrimidin-2-yl]ethylcyanamide [Example 2]” showed an IC50 of 304 nM.
